Where two headings read alike, the source gives them in different places.
Experiments:
[1] = target: T1, FGF14:Nav1.6 C-tail complex (Homo sapiens, UniProt Q92915+Q9UQD0); experiment: Split-luciferase complementation assay (LCA) in Clone V double stable HEK293 cells; assay type: cell-based; settings: for Z-score (LCA primary screening): 30 µM, average of primary screening (n = 2), vs on-plate 0.3% DMSO; for Split Luciferase Assay % Lum Set 1 / Split Luciferase Assay Z-score Set 1: biological replicate Set 1; for Split Luciferase Assay % Lum Set 1 / Split Luciferase Assay %Lum Set 2: normalized to on-plate 0.3% DMSO controls (n=16 per plate); for Split Luciferase Assay Z-score Set 1 / Split Luciferase Assay Z-score Set 2: normalized to on-plate 0.3% DMSO controls; for Split Luciferase Assay Z-score Set 2 / Split Luciferase Assay %Lum Set 2: biological replicate Set 2; for Split Luciferase Assay %Lum Avg: average of Set 1 and Set 2, normalized to 0.3% DMSO controls
T1 construct: polymerase chain reaction (PCR) amplification of the FGF14 open reading frame (nt 1–855); C-terminal fragment of Nav1.6 (amino acids 1763–1976) fused with CD4ΔC-tail (amino acids 1–395); expressed in transfected cells
T1 sequence (Q92915 1-252 isoform Q92915-2): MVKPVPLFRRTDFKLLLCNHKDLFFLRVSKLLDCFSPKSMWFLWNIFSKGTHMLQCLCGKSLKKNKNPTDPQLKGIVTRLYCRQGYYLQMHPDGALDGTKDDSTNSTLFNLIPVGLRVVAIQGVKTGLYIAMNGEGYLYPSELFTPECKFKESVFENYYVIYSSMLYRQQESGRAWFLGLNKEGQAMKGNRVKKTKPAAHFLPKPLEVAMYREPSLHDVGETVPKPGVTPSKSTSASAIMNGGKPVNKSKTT
T1 sequence (Q9UQD0 1763-1976 limits assumed): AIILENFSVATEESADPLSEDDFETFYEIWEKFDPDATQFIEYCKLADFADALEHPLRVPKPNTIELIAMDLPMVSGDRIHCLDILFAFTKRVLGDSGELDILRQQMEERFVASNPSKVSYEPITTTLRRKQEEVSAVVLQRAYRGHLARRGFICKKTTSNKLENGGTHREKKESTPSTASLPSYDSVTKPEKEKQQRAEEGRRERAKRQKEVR

[2] = target: full-length P. pyralis luciferase (Photinus pyralis, UniProt P08659, K549A/L550V/N119G/N50D/S548I); assay type: cell-based
Sequence of full-length P. pyralis luciferase (P08659 whole entry N50D/N119G/S548I/K549A/L550V, looked up): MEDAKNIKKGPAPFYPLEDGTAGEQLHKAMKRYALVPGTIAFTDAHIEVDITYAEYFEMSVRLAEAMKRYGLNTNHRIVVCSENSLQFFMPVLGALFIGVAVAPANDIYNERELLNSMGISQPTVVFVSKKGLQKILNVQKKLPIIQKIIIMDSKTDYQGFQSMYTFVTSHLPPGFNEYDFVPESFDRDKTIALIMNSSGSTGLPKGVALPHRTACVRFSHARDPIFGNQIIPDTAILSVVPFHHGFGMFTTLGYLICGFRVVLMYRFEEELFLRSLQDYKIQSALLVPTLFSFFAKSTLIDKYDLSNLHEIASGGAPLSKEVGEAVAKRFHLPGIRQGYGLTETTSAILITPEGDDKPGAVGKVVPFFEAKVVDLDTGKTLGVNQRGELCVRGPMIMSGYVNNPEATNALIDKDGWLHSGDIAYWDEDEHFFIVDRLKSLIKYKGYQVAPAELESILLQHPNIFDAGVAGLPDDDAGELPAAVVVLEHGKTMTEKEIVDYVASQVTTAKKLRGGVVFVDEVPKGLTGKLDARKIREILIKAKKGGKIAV

[3] = CC_NCI screening, LCA luminescence
[4] = CC_NCI screening, full-length luciferase counter-screen luminescence, normalized to on-plate 0.3% DMSO controls
[5] = CC_NCI screening, full-length luciferase counter-screen, normalized to on-plate 0.3% DMSO controls
[6] = CC_NCI screening, normalized to on-plate 0.3% DMSO controls

SMILES | Split Luciferase Assay % Lum Set 1 [1, 3] [%] | Split Luciferase Assay Z-score Set 1 ([1]; CC_NCI screening, LCA) | Split Luciferase Assay Z-score Set 2 ([1]; CC_NCI screening, LCA) | Split Luciferase Assay %Lum Avg ([1]; CC_NCI screening) [%] | Toxicity Assay % Fluor (Clone V cells; human, 16 h, 30 µM) [%] | Toxicity Assay Z-score (Clone V cells; human, 16 h, 30 µM) | Luciferase Assay % Lum [2, 4] [%] | Luciferase Assay Z-score [2, 5] | Split Luciferase Assay %Lum Set 2 [1, 3] [%] | other results
O=c1[nH]c(=O)n([C@H]2C[C@H](O)[C@@H](CO)O2)cc1F [Floxuridine, reference compound] | 154.69 | 4.42 | 3.04 | 146.01 | 90.13 | -1.38 | 100.29 | 0.04 | – | Z-score (LCA primary screening) ([1]; 384-well): 3.73; EMax (% Luminescence) ([1]; agonists, Clone V cells, 384-well, normalized to DMSO): 146.01 % Luminescence; EC50 ([1]; estimated, 8-point dose response 0.25-30 µM, n = 4 per concentration, library compounds, read-out: EC50): 2460 nM
Nc1nc(F)nc2c1ncn2[C@@H]1O[C@H](COP(=O)(O)O)[C@@H](O)[C@@H]1O [Fludarabine phosphate] | 112.30 | 0.99 | 1.60 | 115.97 | 95.37 | -0.65 | 119.94 | 2.55 | 119.64 | –
COC1=C2C[C@@H](C)C[C@H](OC)[C@H](O)[C@@H](C)/C=C(\C)[C@H](OC(N)=O)[C@@H](OC)/C=C\C=C(/C)C(=O)NC(=CC1=O)C2=O [GELDENAMYCIN] | 70.99 | -2.34 | -1.11 | 78.67 | – | – | 102.35 | 0.30 | 86.35 | Toxicity Assay % Fluor (Clone V cells): 94.70%; Toxicity Assay Z-score (Clone V cells): -0.74
CCc1cc(Nc2nccc(-c3c(-c4ccc(OC)c(C(=O)Nc5c(F)cccc5F)c4)nc4ccccn34)n2)c(OC)cc1N1CCC(N2CCN(S(C)(=O)=O)CC2)CC1 [GSK1904529A] | 116.65 | 1.35 | -0.60 | 104.62 | – | – | 86.97 | -1.67 | 92.59 | Toxicity Assay % Fluor (Clone V cells): 100.76%; Toxicity Assay Z-score (Clone V cells): 0.11
CCn1c(-c2nonc2N)nc2cnc(Oc3cccc(NC(=O)c4ccc(OCCN5CCOCC5)cc4)c3)cc21 [GSK 269962A] | 26.42 | -5.95 | -5.60 | 28.81 | 101.41 | 0.20 | 79.80 | -2.59 | 31.21 | –
Cn1cc(/C=C2\C(=O)Nc3cccnc32)c2ccccc21 [GW 441756] | – | – | – | – | – | – | – | – | – | Split Luciferase Assay Z-score Set 1 ([1]; CC_NCI screening): -0.50; Split Luciferase Assay % Lum Set 1 ([1]; CC_NCI screening): 93.82%; Split Luciferase Assay Z-score Set 2 ([1]; CC_NCI screening): -2.30; Split Luciferase Assay %Lum Set 2 ([1]; CC_NCI screening): 71.78%; Split Luciferase Assay %Lum Avg [1]: 82.80%; Toxicity Assay % Fluor (CTB cell viability fluorescence) (Clone V cells): 107.67%; Toxicity Assay Z-score (CTB cell viability) (Clone V cells): 1.07; Luciferase Assay % Lum (full-length luciferase counter-screen) [2, 6]: 109.93%; Luciferase Assay Z-score (full-length luciferase counter-screen) [2, 6]: 1.27
COc1cc2ncn(-c3cc(OCc4ccccc4C(F)(F)F)c(C(N)=O)s3)c2cc1OC [GW 843682X] | 163.39 | 5.12 | 5.75 | 167.00 | 106.44 | 0.90 | 102.89 | 0.37 | 170.61 | –
COc1cc2ncnc(Nc3ccc(F)c(Cl)c3)c2cc1OCCCN1CCOCC1 [Gefitinib] | 97.08 | -0.24 | 0.24 | 100.03 | 87.95 | -1.68 | – | – | 102.99 | Luciferase Assay % Lum [2]: 85.80%
O=S(=O)(NCCNC/C=C/c1ccc(Br)cc1)c1cccc2cnccc12 [H-89, reference compound] | 14.46 | -6.91 | -6.70 | 16.07 | – | – | 80.98 | -2.44 | 17.69 | Z-score (LCA primary screening) ([1]; 384-well): −6.81; dose-response behavior of repurchased compounds ([1]; 10-point dose response 0.25-50 µM, Clone V cells): purely inhibitory effects; IMin (% Luminescence) ([1]; antagonists, Clone V cells, 384-well, normalized to DMSO): 16.07 % Luminescence; action toward the FGF14:Nav1.6 C-tail interaction ([1]; dose-dependency validation using fresh compound samples): acted as antagonists; IC50 ([1]; estimated, 8-point dose response 0.25-30 µM, n = 4 per concentration, library compounds, read-out: IC50): 12.2 µM; IC50 ([1]; repurchased compounds, 10-point dose response 0.25-50 µM, n = 8 per concentration, Clone V cells, 384-well, read-out: in-cell IC50): 1.9 µM; Toxicity Assay % Fluor (Clone V cells): 91.80%; Toxicity Assay Z-score (Clone V cells): -1.15
CCOC(=O)C1=C(N)Oc2ccc(Br)cc2C1C(C#N)C(=O)OCC (stereo not drawn) [HA14-1] | 80.77 | -1.55 | -0.18 | 89.28 | – | – | 99.78 | -0.03 | 97.79 | Toxicity Assay % Fluor (Clone V cells): 102.67%; Toxicity Assay Z-score (Clone V cells): 0.37
NC(=O)NO [Hydroxyurea] | – | – | – | – | – | – | – | – | – | Split Luciferase Assay Z-score Set 1 ([1]; CC_NCI screening): -0.85; Split Luciferase Assay % Lum Set 1 ([1]; CC_NCI screening): 89.47%; Split Luciferase Assay Z-score Set 2 ([1]; CC_NCI screening): 1.01; Split Luciferase Assay %Lum Set 2 ([1]; CC_NCI screening): 112.35%; Split Luciferase Assay %Lum Avg [1]: 100.91%; Toxicity Assay % Fluor (CTB cell viability fluorescence) (Clone V cells): 115.47%; Toxicity Assay Z-score (CTB cell viability) (Clone V cells): 2.16; Luciferase Assay % Lum (full-length luciferase counter-screen) [2, 6]: 102.60%; Luciferase Assay Z-score (full-length luciferase counter-screen) [2, 6]: 0.33
Cn1cc(CNCC2CCN(c3ncc(C(=O)NO)cn3)CC2)c2ccccc21 [JNJ-26481585] | 112.30 | 0.99 | 0.75 | 110.77 | – | – | 97.58 | -0.31 | 109.23 | Toxicity Assay % Fluor (Clone V cells): 96.89%; Toxicity Assay Z-score (Clone V cells): -0.43
O=c1[nH]nc(Sc2ncc([N+](=O)[O-])s2)n1-c1ccc2c(c1)OCCO2 [JNK INHIBITOR X] | – | – | – | – | – | – | – | – | – | Split Luciferase Assay Z-score Set 1 ([1]; CC_NCI screening): -7.97; Split Luciferase Assay % Lum Set 1 ([1]; CC_NCI screening): 1.41%; Split Luciferase Assay Z-score Set 2 ([1]; CC_NCI screening): -7.88; Split Luciferase Assay %Lum Set 2 ([1]; CC_NCI screening): 3.12%; Split Luciferase Assay %Lum Avg [1]: 2.27%; Toxicity Assay % Fluor (CTB cell viability fluorescence) (Clone V cells): 82.79%; Toxicity Assay Z-score (CTB cell viability) (Clone V cells): -2.41; Luciferase Assay % Lum (full-length luciferase counter-screen) [2, 6]: 4.80%; Luciferase Assay Z-score (full-length luciferase counter-screen) [2, 6]: -12.19
O=c1cc(-c2cccc3c2Sc2ccccc2S3)oc(N2CCOCC2)c1 [KU-55933] | 69.90 | -2.43 | -1.53 | 75.52 | 89.20 | -1.51 | 33.90 | -8.46 | 81.14 | –
CS(=O)(=O)CCNCc1ccc(-c2ccc3ncnc(Nc4ccc(OCc5cccc(F)c5)c(Cl)c4)c3c2)o1 [Lapatinib] | – | – | – | – | – | – | – | – | – | Split Luciferase Assay Z-score Set 1 ([1]; CC_NCI screening): 1.35; Split Luciferase Assay Z-score Set 2 ([1]; CC_NCI screening): -1.87; Split Luciferase Assay %Lum Set 2 ([1]; CC_NCI screening): 76.98%; Split Luciferase Assay %Lum Avg [1]: 96.81%; Toxicity Assay % Fluor (CTB cell viability fluorescence) (Clone V cells): 114.10%; Toxicity Assay Z-score (CTB cell viability) (Clone V cells): 1.97; Luciferase Assay % Lum (full-length luciferase counter-screen) [2]: 75.39%; Luciferase Assay Z-score (full-length luciferase counter-screen) [2]: -3.15
CN(C)C(=N)N=C(N)N [METFORMIN] | 117.73 | 1.43 | 1.17 | 116.08 | 91.06 | -1.25 | – | – | 114.43 | Luciferase Assay % Lum [2]: 96.22%; Luciferase Assay Z-score [2]: -0.48
NC1(c2ccc(-c3nc4ccn5c(=O)[nH]nc5c4cc3-c3ccccc3)cc2)CCC1 [MK-2206] | 48.16 | -4.19 | -4.24 | 48.01 | 95.56 | -0.62 | 85.95 | -1.80 | 47.85 | –

Reference: publication PMC6858373 (Scientific Reports, 2019)
